For six molecules, GI50 and TGI results are on record in PubChem BioAssay (NCI).

Holding throughout (test): inhibition of tumour cell growth, NCI panel, 48 h
In assay [1] the test system is T-47D breast.
Assay [2] deals with U251 CNS.
Assay [3] deals with MALME-3M melanoma.
Assay [4] has as its system SK-MEL-5 melanoma.
The subject of assay [5] is A498 renal.
For assay [6], the system named is HCT-116 colon.
Assay [7] has as its system MOLT-4 leukemia.
In assay [8] the test system is HCT-15 colon.
Assay [9] relates to OVCAR-5 ovarian.
For assay [10], the system named is NCI/ADR-RES ovarian.

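Each compound was tested at five concentrations against cells in 96-well plates for 48 hours. The concentration for 50% growth inhibition is given as GI50. TGI denotes the concentration required for complete inhibition of growth.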 A value given as a limit tells only on which side of the number the result lay.

For the molecule `COc1cc(/C=C/C(=O)c2cccc(-n3cc(-c4ccccc4)[nH]c3=O)c2)cc(OC)c1OC`, the GI50 in assay [1] is 2190 nM; in assay [2], 630 nM; in [3], 1310 nM; in assay [4], 1400 nM; in [5] it was 2650 nM; in [6] it was 332 nM. The GI50 in assay [7] is 1800 nM; in assay [8], 1130 nM; in [9] it was 1880 nM; in assay [10], 1090 nM. The TGI in [1] was 6.9 µM; in [2], 1.94 µM; in assay [3], 3.56 µM; in assay [4], 2690 nM; in assay [5], 6.63 µM; in assay [6], 1.2 µM. Moreover, the TGI is greater than 100 µM in [7], 5.7 µM in assay [8], 3.74 µM in assay [9] and 4.58 µM in [10].

Turning to `CC(C)=CCc1cc2c(cc1O)C1=C(C(=O)C3=C(NCCS3(=O)=O)C1=O)C(C=C(C)C)O2` (stereo not drawn), the GI50 in assay [1] was 4050 nM; in assay [2] it was 4190 nM; in assay [3], 1680 nM; in [4] it was 3350 nM; in assay [5], greater than 16700 nM; in assay [6], 5840 nM. The GI50 in assay [7] was 3160 nM; in [8], 6210 nM; in assay [9], greater than 16700 nM; in assay [10], greater than 16700 nM. Moreover, the TGI in [1] is greater than 16.7 µM; in [2] it was 13.9 µM; in assay [3] it was 4.68 µM; in [4] it was 6950 nM; in assay [5] it was greater than 16.7 µM; in assay [6] it was greater than 16.7 µM. Further, the TGI was 12.2 µM in assay [7], greater than 16.7 µM in [8], greater than 16.7 µM in [9] and greater than 16.7 µM in assay [10].

As to `COC(=O)c1c2c(c(C)[n+]([O-])c1C)C(=O)C(NCc1ccc(OC)cc1)=CC2=O`, the GI50 in assay [1] was 2120 nM; in assay [2] it was 2570 nM; in assay [3], 280 nM; in assay [4], 1130 nM; in assay [5], 2060 nM; in [6], 2170 nM. Moreover, the GI50 was 2360 nM in assay [7], 1640 nM in assay [8], 1800 nM in assay [9] and 2420 nM in [10]. Also, the TGI in [1] was found to be 5.47 µM; in assay [2], 8.82 µM; in assay [3] it was 1.1 µM; in assay [4], 2390 nM; in assay [5], 4.97 µM; in assay [6], 7.13 µM. Further, the TGI worked out at 6.63 µM in assay [7], 3.72 µM in assay [8], 4.06 µM in [9] and 7.49 µM in assay [10].

As for `COc1cc2c(c3oc(-c4ccc(O)cc4)c(O)c(=O)c13)CCC(C)(C)O2`, the GI50 in assay [1] is 767 nM; in assay [2], 107 nM; in assay [3], 1420 nM; in assay [4], 90.8 nM; in assay [5], 148 nM; in [6], 172 nM. Further, the GI50 in assay [7] was 191 nM; in assay [8], 169 nM; in assay [9] it was 229 nM; in assay [10] it was 309 nM. The TGI in assay [2] is 0.8 µM; in [3], greater than 100 µM; in assay [4], 241 nM; in assay [5] it was 0.538 µM; in assay [6] it was 0.372 µM; in [8] it was 0.392 µM. For the same molecule, the values for the TGI in assay [9] and in assay [10] were 0.622 µM and 0.829 µM, respectively.

For the molecule `CN(C)CCNC(=O)c1cc2c3cc(Cl)ccc3[nH]c2c2ncccc12`, the GI50 in assay [1] was 3800 nM; in [2], 2490 nM; in assay [3] it was 1890 nM; in [4], 1340 nM; in assay [5], 3520 nM; in assay [6], 1520 nM. Moreover, the GI50 in [7] was 1540 nM; in [8] it was 1840 nM; in assay [9], 11900 nM; in assay [10] it was 5400 nM. Also, the TGI was 17.8 µM in assay [1]; 9.45 µM in assay [2]; 3.94 µM in assay [3]; 2690 nM in assay [4]; 13.1 µM in [5]; 4.68 µM in assay [6]. In addition, the TGI worked out at 4.27 µM in [7], 4.9 µM in assay [8], 27.4 µM in assay [9] and 20.8 µM in [10].

For `CS(=O)(=O)OCCN(CCOS(C)(=O)=O)c1ccc(C=Nc2ccc(-c3csc(COc4ccccc4)n3)cc2)cc1`, the TGI was greater than 51.8 µM in assay [1]; 25 µM in assay [2]; 28.8 µM in [3]; 23900 nM in assay [4]; 7.48 µM in [5]; 27.6 µM in assay [6]. Moreover, the TGI in assay [7] amounted to 15.6 µM; in assay [8], 22.4 µM; in assay [9] it was 12.6 µM; in [10], 49.7 µM.
